≈ marks a conversion by molar mass, not a printed value. Calls of active or inactive are those of the source. No cut-off for these calls is given here.
Assays:
[1] = biological target: Metallo-beta-lactamase type 2 (Bacteria) (UniProt C7C422); test: Inhibition of NDM-1 (unknown origin) using nitrocefin as substrate assessed as residual activity at 64 ug/ml preincubated for 15 mins followed by substrate addition by absorbance based assay relative to control; conditions: dose 64.0 µg/ml
[2] = biological target: T1, Metallo-beta-lactamase type 2 (Bacteria, UniProt C7C422); test: Inhibition of NDM-1 (unknown origin)
[3] = biological target: T1, Metallo-beta-lactamase type 2; test: Inhibition of NDM-1 (unknown origin) using nitrocefin as substrate assessed as residual activity preincubated for 15 mins followed by substrate addition by absorbance based assay
[4] = system: Escherichia coli; test: Synergistic antibacterial activity against Escherichia coli ZJ487 assessed as fractional inhibitory concentration index upto 64 ug/ml incubated for 24 hrs in presence of meropenem by microdilution checkerboard analysis; type: functional; conditions: dose <= 64 µg/ml
[5] = system: Acinetobacter baumannii; test: Synergistic antibacterial against Acinetobacter baumannii aba assessed as minimum bacteriostatic concentration of meropenem at 8 ug/ml incubated for 20 hrs; type: functional; conditions: dose 8 µg/ml
[6] = system: Escherichia coli; test: Synergistic antibacterial activity against Escherichia coli ZJ487 infected in BALB/c mouse assessed as reduction in bacterial count in liver at 10 mg/kg, sc administered at every 12 hr interval measured after 42 hrs in presence of meropenem; type: functional, organism-based
[7] = system: Klebsiella pneumoniae; test: Antibacterial activity against Klebsiella pneumoniae K-N-1 assessed as minimum bacteriostatic concentration incubated for 20 hrs; type: functional
[8] = system: Escherichia coli; test: Synergistic antibacterial activity against Escherichia coli BL21 expressing NDM-1 assessed as fractional inhibitory concentration index upto 64 ug/ml incubated for 24 hrs in presence of meropenem by microdilution checkerboard analysis; type: functional; conditions: dose <= 64 µg/ml
[9] = Cytotoxicity against HEK293T cells assessed as survival rate at 128 ug/ml incubated for 48 hrs by MTT assay; type: toxicity, cell-based, HEK-293T; conditions: human, at 128 µg/mL, read-out: Survival
[10] = system: Escherichia coli; test: Antibacterial activity against Escherichia coli ZJ487 infected in BALB/c mouse assessed as reduction in bacterial count in liver at 10 mg/kg, sc administered at every 12 hr interval measured after 42 hrs; type: functional, organism-based
[11] = system: Escherichia coli; test: Synergistic antibacterial activity against Escherichia coli ZJ487 assessed as fractional inhibitory concentration index at 8 ug/ml incubated for 20 hrs in presence of meropenem; type: functional; conditions: dose 8 µg/ml
[12] = Metabolic stability in rat liver homogenate assessed as parent compound remaining measured after 48 hrs by HPLC analysis; type: ADME, tissue-based; conditions: read-out: Stability
[13] = system: Escherichia coli; test: Antibacterial activity against Escherichia coli BL21 assessed as minimum bacteriostatic concentration incubated for 20 hrs; type: functional
[14] = Metabolic stability in rat plasma assessed as parent compound remaining measured after 48 hrs by HPLC analysis; type: ADME, cell-free; conditions: read-out: Stability
[15] = system: Escherichia coli; test: Synergistic antibacterial activity against Escherichia coli BL21 assessed as fractional inhibitory concentration index at 8 ug/ml incubated for 20 hrs in presence of meropenem; type: functional; conditions: dose 8 µg/ml
[16] = system: Escherichia coli; test: Synergistic antibacterial activity against Escherichia coli ZJ487 infected in BALB/c mouse assessed as reduction in bacterial count in spleen at 10 mg/kg, sc administered at every 12 hr interval measured after 42 hrs in presence of meropenem; type: functional, organism-based
[17] = system: Escherichia coli; test: Antibacterial activity against Escherichia coli ZJ487 assessed as minimum bacteriostatic concentration incubated for 20 hrs; type: functional
[18] = system: Escherichia coli; test: Synergistic bactericidal activity against Escherichia coli BL21 expressing NDM-1 at 16 ug/ml incubated for 8 hrs in presence of meropenem; type: functional, organism-based; conditions: dose 16.0 µg/ml
[19] = system: Escherichia coli; test: Synergistic antibacterial activity against Escherichia coli BL21 assessed as minimum bacteriostatic concentration of meropenem at 8 ug/ml incubated for 20 hrs; type: functional; conditions: dose 8 µg/ml
[20] = system: Klebsiella pneumoniae; test: Synergistic antibacterial activity against Klebsiella pneumoniae K-N-1 assessed as minimum bacteriostatic concentration of meropenem at 8 ug/ml incubated for 20 hrs; type: functional; conditions: dose 8 µg/ml
[21] = system: Acinetobacter baumannii; test: Antibacterial activity against Acinetobacter baumannii aba assessed as minimum bacteriostatic concentration incubated for 20 hrs; type: functional
[22] = system: THP-1; test: Cytotoxicity against human THP-1 cells assessed as survival rate at 128 ug/ml incubated for 48 hrs by MTT assay; type: functional; conditions: read-out: Survival
[23] = system: Escherichia coli; test: Synergistic antibacterial activity against Escherichia coli ZJ487 assessed as minimum bacteriostatic concentration of meropenem at 8 ug/ml incubated for 20 hrs; type: functional; conditions: dose 8 µg/ml
[24] = system: Escherichia coli; test: Synergistic bactericidal activity against Escherichia coli ZJ487 at 16 ug/ml incubated for 8 hrs in presence of meropenem; type: functional, organism-based; conditions: dose 16.0 µg/ml
[25] = system: Klebsiella pneumoniae; test: Synergistic antibacterial activity against Klebsiella pneumoniae K-N-1 assessed as fractional inhibitory concentration index at 8 ug/ml incubated for 20 hrs in presence of meropenem; type: functional; conditions: dose 8 µg/ml
[26] = system: Acinetobacter baumannii; test: Synergistic antibacterial against Acinetobacter baumannii aba assessed as fractional inhibitory concentration index at 8 ug/ml incubated for 20 hrs in presence of meropenem; type: functional; conditions: dose 8 µg/ml
[27] = system: Escherichia coli; test: Antibacterial activity against Escherichia coli ZJ487 infected in BALB/c mouse assessed as reduction in bacterial count in spleen at 10 mg/kg, sc administered at every 12 hr interval measured after 42 hrs; type: functional, organism-based
[28] = biological target: T1, Metallo-beta-lactamase type 2; test: Inhibition of C-terminal His-tagged NDM-1 (unknown origin) extracted from Escherichia coli BL21 (DE3) using fluorescent cephalosporin as substrate preincubated for 10 mins followed by substrate addition by fluorescence based assay

Chain of Metallo-beta-lactamase type 2 (Bacteria) (C7C422 whole entry): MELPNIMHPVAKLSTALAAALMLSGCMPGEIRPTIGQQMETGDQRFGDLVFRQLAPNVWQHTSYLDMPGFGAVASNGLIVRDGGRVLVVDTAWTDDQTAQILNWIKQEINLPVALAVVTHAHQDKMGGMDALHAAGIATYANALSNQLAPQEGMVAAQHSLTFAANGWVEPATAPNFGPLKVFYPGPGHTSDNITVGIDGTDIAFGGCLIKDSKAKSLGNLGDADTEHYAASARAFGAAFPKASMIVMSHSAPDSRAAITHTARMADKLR
T1 sequence (C7C422 whole entry): as above

SMILES: Cc1cc(C)cc(CN[C@@H]2C(=O)N3C(C(=O)O)=C(C[Se]c4ccccc4C(=O)Nc4ccccc4)CS[C@H]23)c1
- Activity [1]: 69.3%

SMILES: CCOC(=O)[C@]1(CS)C[C@H](C(=O)O)C(C)(C)S1
- IC50 [2]: 0.04 µM

SMILES: CCN(CC)[C@@H]1C(=O)N2C(C(=O)O)=C(C[Se]c3ccccc3C(=O)Nc3ccccc3)CS[C@H]12
- Activity [1]: 70.2%

SMILES: COc1cc(Cl)cc(CN[C@@H]2C(=O)N3C(C(=O)O)=C(C[Se]c4ccccc4C(=O)Nc4ccccc4)CS[C@H]23)c1
- Activity [1]: 37.9%

SMILES: CC(C)(C)OC(=O)NCCCCCCn1[se]c2ccccc2c1=O
- IC50 [2]: 1.26 µM

SMILES: O=C(O)C1=C(C[Se]c2ccccc2C(=O)Nc2ccccc2)CS[C@@H]2[C@H](NCc3cc(Cl)nc(Cl)c3)C(=O)N12
- Activity [1]: 68.1%

SMILES: O=C(Cc1ccccc1)N[C@H]1C(=O)N2C(C(=O)O)=C(C[S+]([O-])CCC(=O)Oc3c(F)c(F)c(F)c(F)c3F)C[S+]([O-])[C@@H]12 (stereo not given in full)
- IC50 [2]: 0.39 µM

SMILES: CS(=O)(=O)N[C@@H]1C(=O)N2C(C(=O)O)=C(C[Se]c3ccccc3C(=O)Nc3ccccc3)CS[C@H]12
- IC50 [3]: 69.7 µM
- Activity [1]: 48.9%

SMILES: Cc1cc(Cl)cc(CN[C@@H]2C(=O)N3C(C(=O)O)=C(C[Se]c4ccccc4C(=O)Nc4ccccc4)CS[C@H]23)c1
- IC50 [3]: 72.9 µM
- Activity [1]: 30%

SMILES: O=C(O)C1=C(C[Se]c2ccccc2C(=O)Nc2ccccc2)CS[C@@H]2[C@H](NC(=O)c3ccccc3)C(=O)N12
- IC50 [3]: 62.2 µM
- Activity [1]: 22.3%

SMILES: O=C(Cc1ccccc1)N[C@@H]1C(=O)N2C(C(=O)O)=C(C[Se]c3ccccc3C(=O)Nc3ccccc3)CS[C@H]12
- IC50 [3]: 90.3 µM
- Activity [1]: 23.9%

SMILES: CC(=O)N[C@@H]1C(=O)N2C(C(=O)O)=C(C[Se]c3ccccc3C(=O)Nc3ccccc3)CS[C@H]12
- Activity [1]: 88.2%

SMILES: N#Cc1cc(Cl)cc(CN[C@@H]2C(=O)N3C(C(=O)O)=C(C[Se]c4ccccc4C(=O)Nc4ccccc4)CS[C@H]23)c1
- Activity [1]: 42.3%

SMILES: O=C(O)C1=C(C[Se]c2ccccc2C(=O)Nc2ccccc2)CS[C@@H]2[C@H](NCc3cccs3)C(=O)N12
- IC50 [3]: 52.9 µM
- Activity [1]: 25.2%

SMILES: O=c1c2ccccc2[se]n1-c1ncccc1-c1ccc(F)cc1
- IC50 [2]: 11.3 µM

SMILES: O=C(O)C1=C(C[Se]c2ccccc2C(=O)Nc2ccccc2)CS[C@@H]2[C@H](NCc3cc(Cl)cc(Cl)c3)C(=O)N12
- fractional inhibitory concentration index (FICI) [4]: 0.125
- MIC [5]: 32 µg/mL
- Activity [6]: Active
- MIC [7]: 64 µg/mL (≈ 98.9 µM)
- fractional inhibitory concentration index (FICI) [8]: 0.25
- viability at 48 h, 128 ug/ml [9]: > 100%
- Activity [10]: inactive
- IC50 [3]: 7.03 µM
- fractional inhibitory concentration index (FICI) [11]: 0.093
- remaining at 48 h [12]: 59.3%
- MIC [13]: 128 µg/mL (≈ 198 µM)
- remaining at 48 h [14]: > 80%
- fractional inhibitory concentration index (FICI) [15]: 0.141
- Activity [16]: Active
- MIC [17]: 32 µg/mL (≈ 49.4 µM)
- Activity [18]: Not active; Compound Did Not Eradicate Bacteria Completely But Maintained A State Of Significantly Lower Level Compared To Meropenem Alone
- MIC [19]: 16 µg/mL
- MIC [20]: 16 µg/mL
- Activity [1]: 6.53%
- MIC [21]: > 512 µg/mL
- viability at 128 µg/mL [22]: > 100%
- MIC [23]: 1 µg/mL
- Activity [24]: Not active; Compound Did Not Eradicate Bacteria Completely But Maintained A State Of Significantly Lower Level Compared To Meropenem Alone
- fractional inhibitory concentration index (FICI) [25]: 0.281
- fractional inhibitory concentration index (FICI) [26]: 0.078
- Activity [27]: inactive

SMILES: O=C(O)C1=C(C[Se]c2ccccc2C(=O)Nc2ccccc2)CS[C@@H]2[C@H](NC(=O)n3cnnn3)C(=O)N12
- Activity [1]: 72.9%

SMILES: O=C(O)C1=C(C[Se]c2ccccc2C(=O)Nc2ccccc2)CS[C@@H]2[C@H](NCc3ccccc3Cl)C(=O)N12
- Activity [1]: 66.2%

SMILES: COc1cc(CN[C@@H]2C(=O)N3C(C(=O)O)=C(C[Se]c4ccccc4C(=O)Nc4ccccc4)CS[C@H]23)cc(OC)c1
- Activity [1]: 55.8%

SMILES: O=C(O)C1=C(C[Se]c2ccccc2C(=O)Nc2ccccc2)CS[C@@H]2[C@H](NCc3cccc(Cl)c3)C(=O)N12
- Activity [1]: 60.9%

SMILES: O=C(O)C1=C(C[Se]c2ccccc2C(=O)Nc2ccccc2)CS[C@@H]2[C@H](NCc3cc(F)cc(F)c3)C(=O)N12
- Activity [1]: 41.1%

SMILES: O=C(O)C1=C(C[Se]c2ccccc2C(=O)Nc2ccccc2)CS[C@@H]2[C@H](NCc3cc(F)cc(Cl)c3)C(=O)N12
- IC50 [3]: 77.8 µM
- Activity [1]: 27.8%

SMILES: O=C(O)C1=C(C[Se]c2ccccc2C(=O)Nc2ccccc2)CS[C@@H]2[C@H](NS(=O)(=O)c3cccs3)C(=O)N12
- Activity [1]: 51.6%

SMILES: O=C(O)C1=C(C[Se]c2ccccc2C(=O)Nc2ccccc2)CS[C@@H]2[C@H](NC(=O)C3CC3)C(=O)N12
- IC50 [3]: 150 µM
- Activity [1]: 47.3%

SMILES: C[C@@H](O)[C@H]1C(=O)N2C(C(=O)O)=C(S[C@@H]3CN[C@H](C(=O)N(C)C)C3)[C@H](C)[C@H]12 [MEROPENEM]
- MIC [7]: > 512 µg/mL
- Activity [10]: inactive
- MIC [21]: > 512 µg/mL
- Activity [27]: inactive

SMILES: O=C(Cc1ccccc1)N[C@@H]1C(=O)N2C(C(=O)O)=C(CSc3cccc4cccnc34)CS[C@H]12
- IC50 [28]: 2.31 µM

SMILES: O=C(O)C1=C(C[Se]c2ccccc2C(=O)Nc2ccccc2)CS[C@@H]2[C@H](NCc3ccccc3)C(=O)N12
- IC50 [3]: 37.8 µM
- Activity [1]: 17.8%

SMILES: O=C(O)C1=C(C[Se]c2ccccc2C(=O)Nc2ccccc2)CS[C@@H]2[C@H](NS(=O)(=O)Cc3ccccc3)C(=O)N12
- Activity [1]: 63.8%

SMILES: O=C(O)C1=C(C[Se]c2ccccc2C(=O)Nc2ccccc2)CS[C@@H]2[C@H](NS(=O)(=O)c3ccccc3)C(=O)N12
- Activity [1]: 48.4%

SMILES: O=C(O)C1=C(C[Se]c2ccccc2C(=O)Nc2ccccc2)CS[C@@H]2[C@H](NCC3CC3)C(=O)N12
- Activity [1]: 78.2%

SMILES: O=C(O)C1=C(C[Se]c2ccccc2C(=O)Nc2ccccc2)CS[C@@H]2[C@H](NCc3cc(C(F)(F)F)cc(C(F)(F)F)c3)C(=O)N12
- Activity [1]: 61.6%

SMILES: O=C(O)C1=C(C[Se]c2ccccc2C(=O)Nc2ccccc2)CS[C@@H]2[C@H](NCc3ccc(Cl)cc3)C(=O)N12
- Activity [1]: 54%

SMILES: O=C(O)C1=C(C[Se]c2ccccc2C(=O)Nc2ccccc2)CS[C@@H]2[C@H](NC(=O)c3cccs3)C(=O)N12
- Activity [1]: 49.5%

SMILES: O=c1c2ccccc2[se]n1-c1ccccc1 [EBSELEN]
- IC50 [3]: 16 µM
- Activity [1]: 8.05%

SMILES: N#CCC(=O)N[C@@H]1C(=O)N2C(C(=O)O)=C(C[Se]c3ccccc3C(=O)Nc3ccccc3)CS[C@H]12
- Activity [1]: 61.7%

SMILES: O=C(O)C1=C(C[Se]c2ccccc2C(=O)Nc2ccccc2)CS[C@@H]2[C@H](NS(=O)(=O)C3CC3)C(=O)N12
- IC50 [3]: 114 µM
- Activity [1]: 44.1%

SMILES: CC1=C(C(=O)O)N2C(=O)[C@@H](NCc3cc(Cl)cc(Cl)c3)[C@H]2SC1
- Activity [1]: 99.6%
